In ChEMBL document CHEMBL3872232, “2-Azetidinones: Synthesis and biological evaluation as potential anti-breast cancer agents” (Eur J Med Chem, 2016):

Experiments:
[1] = Antiproliferative activity against human MCF7 cells after 48 hrs by MTT assay; assay type: functional, cell-based; settings: MCF7, 48 h
[2] = Antiproliferative activity against human MDA-MB-231 cells after 48 hrs by MTT assay; assay type: functional, cell-based; settings: MDA-MB-231, 48 h
[3] = Antiproliferative activity against human mammary epithelial cells after 48 hrs by MTT assay; assay type: cell-based, Epithelial cell
Homo sapiens [4] = species: Homo sapiens; experiment: Inhibition of Akt in human MDA-MB-231 cells assessed as ratio of phosphorylated GSK-3beta to GAPDH expression level at 2 uM after 48 hrs by immunoblot analysis (reference value: 0.14 to 1.50); assay type: cell-based
MDA-MB-231 [5] = experiment: Effect on Cdk6 mRNA expression in human MDA-MB-231 cells assessed as ratio of Cdk6 to GAPDH expression level at 5 uM after 24 hrs by RT-PCR method (reference value: 1.37); assay type: functional
MDA-MB-231 [6] = experiment: Inhibition of Akt in human MDA-MB-231 cells after 48 hrs by ELISA; assay type: cell-based
[7] = Cell cycle arrest in human MCF7 cells assessed as accumulation at G0/G1 phase at 5 uM after 24 hrs by propidium iodide staining based flow cytometry (reference value: 83.25%); assay type: functional
MDA-MB-231 [8] = experiment: Effect on cyclin D1 mRNA expression in human MDA-MB-231 cells assessed as ratio of cyclin D1 to GAPDH expression level at 5 uM after 24 hrs by RT-PCR method (reference value: 0.71); assay type: functional
[9] = Cell cycle arrest in human MCF7 cells assessed as accumulation at S phase at 5 uM after 24 hrs by propidium iodide staining based flow cytometry (reference value: 4.23%); assay type: functional
Homo sapiens [10] = species: Homo sapiens; experiment: Inhibition of Akt in human MDA-MB-231 cells assessed as ratio of phosphorylated GSK-3beta to GAPDH expression level at 5 uM after 48 hrs by immunoblot analysis (reference value: 0.14 to 1.50); assay type: cell-based
Homo sapiens [11] = species: Homo sapiens; experiment: Inhibition of Akt in human MDA-MB-231 cells assessed as ratio of phosphorylated GSK-3beta to GAPDH expression level at 10 uM after 48 hrs by immunoblot analysis (reference value: 0.14 to 1.50); assay type: cell-based
MCF7 [12] = experiment: Induction of apoptosis in human MCF7 cells assessed as late apoptotic cells at 5 uM after 24 hrs by Annexin V-FITC/propidium iodide staining based flow cytometry (reference value: 2.3%); assay type: functional
Homo sapiens [13] = species: Homo sapiens; experiment: Inhibition of Akt in human MDA-MB-231 cells assessed as ratio of phosphorylated Akt to GAPDH expression level at 2 uM after 48 hrs by immunoblot analysis (reference value: 0.33 to 0.81); assay type: cell-based
[14] = Cell cycle arrest in human MCF7 cells assessed as accumulation at G2/M phase at 5 uM after 24 hrs by propidium iodide staining based flow cytometry (reference value: 9.29%); assay type: functional
Homo sapiens [15] = species: Homo sapiens; experiment: Inhibition of Akt in human MDA-MB-231 cells assessed as ratio of phosphorylated Akt to GAPDH expression level at 10 uM after 48 hrs by immunoblot analysis (reference value: 0.33 to 0.81); assay type: cell-based
MDA-MB-231 [16] = experiment: Induction of apoptosis in human MDA-MB-231 cells assessed as late apoptotic cells at 5 uM after 24 hrs by Annexin V-FITC/propidium iodide staining based flow cytometry (reference value: 1.8%); assay type: functional
MCF7 [17] = experiment: Induction of apoptosis in human MCF7 cells assessed as early apoptotic cells at 5 uM after 24 hrs by Annexin V-FITC/propidium iodide staining based flow cytometry (reference value: 1.6%); assay type: functional
[18] = Safety index, ratio of compound IC50 to colchicine IC50 for human mammary epithelial cells; assay type: ADME, cell-based, Epithelial cell; settings: read-out: Ratio IC50
MDA-MB-231 [19] = experiment: Effect on p21 mRNA expression in human MDA-MB-231 cells assessed as ratio of p21 to GAPDH expression level at 5 uM after 24 hrs by RT-PCR method (reference value: 0.02); assay type: functional
MDA-MB-231 [20] = experiment: Induction of apoptosis in human MDA-MB-231 cells assessed as necrotic cells at 5 uM after 24 hrs by Annexin V-FITC/propidium iodide staining based flow cytometry (reference value: 1.3%); assay type: functional
Homo sapiens [21] = species: Homo sapiens; experiment: Inhibition of Akt in human MDA-MB-231 cells assessed as ratio of phosphorylated Akt to GAPDH expression level at 5 uM after 48 hrs by immunoblot analysis (reference value: 0.33 to 0.81); assay type: cell-based
MDA-MB-231 [22] = experiment: Effect on Bid gene expression in human MDA-MB-231 cells assessed as ratio of Bid to beta-actin expression level at 5 uM after 24 hrs by RT-PCR method (reference value: 0.17); assay type: functional
MDA-MB-231 [23] = experiment: Ratio of Bcl-2 to Bax gene expression in human MDA-MB-231 cells at 5 uM after 24 hrs by RT-PCR method (reference value: 0.03); assay type: functional
MDA-MB-231 [24] = experiment: Inhibition of Akt in human MDA-MB-231 cells assessed as reduction in GSK-3beta phosphorylation after 48 hrs by immunoblot analysis; assay type: cell-based
MDA-MB-231 [25] = experiment: Effect on cyclin E mRNA expression in human MDA-MB-231 cells assessed as ratio of cyclin E to GAPDH expression level at 5 uM after 24 hrs by RT-PCR method (reference value: 0.13); assay type: functional
MDA-MB-231 [26] = experiment: Effect on p53 gene expression in human MDA-MB-231 cells assessed as ratio of p53 to beta-actin expression level at 5 uM after 24 hrs by RT-PCR method (reference value: 0.22); assay type: functional
[27] = Cell cycle arrest in human MCF7 cells assessed as accumulation at sub-G1 phase at 5 uM after 24 hrs by propidium iodide staining based flow cytometry (reference value: 3.58%); assay type: functional
MDA-MB-231 [28] = experiment: Induction of apoptosis in human MDA-MB-231 cells assessed as early apoptotic cells at 5 uM after 24 hrs by Annexin V-FITC/propidium iodide staining based flow cytometry (reference value: 0.5%); assay type: functional
MCF7 [29] = experiment: Induction of apoptosis in human MCF7 cells assessed as necrotic cells at 5 uM after 24 hrs by Annexin V-FITC/propidium iodide staining based flow cytometry (reference value: 3.7%); assay type: functional
MDA-MB-231 [30] = experiment: Effect on p27 mRNA expression in human MDA-MB-231 cells assessed as ratio of p27 to GAPDH expression level at 5 uM after 24 hrs by RT-PCR method (reference value: 0.23); assay type: functional
MDA-MB-231 [31] = experiment: Effect on Cdk2 mRNA expression in human MDA-MB-231 cells assessed as ratio of Cdk2 to GAPDH expression level at 5 uM after 24 hrs by RT-PCR method (reference value: 0.26); assay type: functional
[32] = Homo sapiens, Epithelial cell, 48 h, read-out: IC50

Compound: COC(=O)/C(=C/c1ccccc1)CN1C(=O)[C@@H](OC)[C@H]1c1ccc(OC)cc1
- IC50 [1]: 11.6 µM
- IC50 [2]: 14 µM
- IC50 ([3]; epithelial cell): Non-Toxic

Compound: CO[C@@H]1C(=O)N(C/C(C#N)=C/c2ccccc2)[C@@H]1c1ccccc1Br
- IC50 [1]: 10.8 µM
- IC50 [2]: 10.7 µM
- IC50 ([3]; epithelial cell): Non-Toxic

Compound: CO[C@@H]1C(=O)N(C/C(C#N)=C/c2ccccc2)[C@@H]1c1ccc(Br)cc1
- IC50 ([3]; epithelial cell): Non-Toxic

Compound: COc1ccc(OC)c([C@@H]2[C@H](OC)C(=O)N2C/C(C#N)=C/c2ccccc2)c1
- IC50 [2]: 23.4 µM
- IC50 [3, 32]: > 100 µM

Compound: COC(=O)/C(=C/c1ccccc1)CN1C(=O)[C@@H](OC)[C@H]1c1ccccc1C(F)(F)F
- IC50 [2]: 17.6 µM
- IC50 ([3]; epithelial cell): Non-Toxic

Compound: CCOC(=O)/C(=C/c1ccccc1)CN1C(=O)[C@@H](OC)[C@H]1c1cccc([N+](=O)[O-])c1
- IC50 [1]: 19.9 µM
- IC50 [2]: 14.4 µM
- IC50 ([3]; epithelial cell): Non-Toxic

Compound: CO[C@@H]1C(=O)N(C/C(C#N)=C/c2ccccc2)[C@@H]1c1ccc(Cl)cc1
- IC50 [1]: 19.8 µM
- IC50 [2]: 18 µM
- IC50 ([3]; epithelial cell): Non-Toxic

Compound: COC(=O)/C(=C/c1ccccc1)CN1C(=O)[C@@H](OC)[C@H]1c1cccc(C(F)(F)F)c1
- IC50 [2]: 18.2 µM
- IC50 [3, 32]: 71.8 µM

Compound: CCOC(=O)/C(=C/c1ccccc1)CN1C(=O)[C@@H](OC)[C@H]1c1ccc(Cl)cc1
- IC50 [1]: 12.7 µM
- IC50 [2]: 11.1 µM
- IC50 ([3]; epithelial cell): Non-Toxic

Compound: COC(=O)/C(=C/c1ccccc1)CN1C(=O)[C@@H](OC)[C@H]1c1cccc(F)c1
- IC50 [1]: 13.7 µM
- IC50 [2]: 34.4 µM
- IC50 [3, 32]: 38.5 µM

Compound: CO[C@@H]1C(=O)N(C/C(C#N)=C/c2ccccc2)[C@@H]1c1cccc2ccccc12
- IC50 [1]: 11.7 µM
- IC50 ([3]; epithelial cell): Non-Toxic

Compound: CO[C@@H]1C(=O)N(C/C(C#N)=C/c2ccccc2)[C@@H]1c1ccc(F)cc1
- Ratio (Homo sapiens [4]): 0.42
- Ratio (MDA-MB-231 [5]): 1.3
- inhibition (MDA-MB-231 [6]): Dose-dependent effect
- Activity [7]: 83.2%
- Ratio (MDA-MB-231 [8]): 1.59
- Activity [9]: 5.15%
- IC50 [1]: 8.31 µM
- Ratio (Homo sapiens [10]): 0.22
- Ratio (Homo sapiens [11]): 0.2
- Activity (MCF7 [12]): 2.3%
- Ratio (Homo sapiens [13]): 0.42
- IC50 [2]: 9.24 µM
- Activity [14]: 9.68%
- Ratio (Homo sapiens [15]): 0.58
- Activity (MDA-MB-231 [16]): 4.7%
- Activity (MCF7 [17]): 1.7%
- selectivity ratio [18]: 10
- Ratio (MDA-MB-231 [19]): 0.09
- Activity (MDA-MB-231 [20]): 1.6%
- Ratio (Homo sapiens [21]): 0.45
- IC50 ([3]; epithelial cell): Non-Toxic
- Ratio (MDA-MB-231 [22]): 0.39
- Ratio (MDA-MB-231 [23]): 0.03
- inhibition (MDA-MB-231 [24]): Dose-dependent effect
- Ratio (MDA-MB-231 [25]): 0.2
- Ratio (MDA-MB-231 [26]): 0.21
- Activity [27]: 2.83%
- Activity (MDA-MB-231 [28]): 1.1%
- Activity (MCF7 [29]): 6.9%
- Ratio (MDA-MB-231 [30]): 0.33
- Ratio (MDA-MB-231 [31]): 0.32
